Assay results published in patent US20120295845A1, “IMIDAZO-PYRAZOLES AS GPR119 INHIBITORS” (Pfizer Inc, priority 2009, published 2012).
Several values for one entry are separate records, joined by “and”; a condition that tells them apart may be missing. Equal entries are not always repeated.

Columns and labels:
human GPR119 [1] = target: T1, human GPR119 (Homo sapiens, UniProt Q8TDV5); experiment: beta-arrestin functional assay (DiscoverX PathHunter U2OS hGPR119 beta-arrestin cells); assay type: cell-based; settings: for EC50: read-out: Human B-arrestin Functional EC50; for Emax: U2OS, read-out: Intrinsic Activity* (B-arrestin)
T1 construct: host or cells: U2OS
Protocol: GPR119 agonist activity was also determined with a cell-based assay utilizing DiscoverX PathHunter β-arrestin cell assay technology and their U2OS hGPR119 β-arrestin cell line (DiscoverX Cat # 93-0356C3). In this assay, agonist activation is determined by measuring agonist-induced interaction of β-arrestin with activated GPR119. A small, 42 amino acid enzyme fragment, called ProLink was appended to the C-terminus of GPR119. Arrestin was fused to the larger enzyme fragment, termed EA (Enzyme Acceptor). Activation of GPR119 stimulates binding of arrestin and forces the complementation of the two enzyme fragments, resulting in formation of a functional β-galactosidase enzyme capable of hydrolyzing substrate and generating a chemiluminescent signal.
Specifically, U2OS hGPR119 β-arrestin cells (DiscoverX 1×10^7/mL) are removed from cryopreservation and diluted in growth medium (Minimum essential medium (MEM; Gibco Cat # 11095-080), 10% heat inactivated fetal bovine serum (HIFBS; Sigma Cat # F4135-100), […] sodium pyruvate (Sigma Cat # S8636), 500 microg/mL G418 (Sigma Cat # G8168) and 250 microg/mL Hygromycin B (Invitrogen Cat # 10687-010). The cell concentration was adjusted to 1.66×10^5 cells/mL and 30 mLs of this suspension was added to a T-175 flask and incubated at 37 degrees Celsius in a humidified environment in 5% carbon dioxide. After 48 hours, the cells were removed from the T-175 flask with enzyme-free cell dissociation buffer (Gibco cat # 13151-014), centrifuged at 800×g and then re-suspended in plating medium (Opti-MEM I (Invitrogen/BRL Cat # 31985-070) and 2% charcoal dextran treated fetal bovine serum (CD serum; HyClone Cat # SH30068.03). The cell concentration was adjusted to 2.5×10^5 cells/mL with plating medium and 10 microL of this cell suspension (2500 cells) was added to each well of a white Greiner 384-well low volume assay plate (VWR cat # 82051-458) and the plates were incubated at 37 degrees Celsius in a humidified environment in 5% carbon dioxide.
After 16 hours (overnight) the assay plates were removed from the incubator and varying concentrations of each compound to be tested (diluted in assay buffer (1×HBSS+CaCl2+MgCl2 (Gibco Cat # 14025-092), 20 mM HEPES pH 7.0 (Gibco Cat # 15630-080) and 0.1% BSA (Sigma Cat # A9576)) were added to the assay plate wells in a volume of 2.5 microL (final DMSO concentration was 0.5%). After a 90 minute incubation at 37 degrees Celsius in a humidified environment in 5% carbon dioxide, 7.5 microL of Galacton Star β-galactosidase substrate (Path Hunter Detection Kit (DiscoveRx Cat # 93-0001); prepared as described in the manufacturers assay protocol) was added to each well of the assay plate. The plates were incubated at room temperature and after 60 minutes, changes in the luminescence were read with an Envision 2104 multilabel plate reader at 0.1 seconds per well. EC50 determinations were made from an agonist-response curves analyzed with a curve fitting program using a 4-parameter logistic dose response equation.
T1 sequence (P32121 whole entry partner, one chain of several): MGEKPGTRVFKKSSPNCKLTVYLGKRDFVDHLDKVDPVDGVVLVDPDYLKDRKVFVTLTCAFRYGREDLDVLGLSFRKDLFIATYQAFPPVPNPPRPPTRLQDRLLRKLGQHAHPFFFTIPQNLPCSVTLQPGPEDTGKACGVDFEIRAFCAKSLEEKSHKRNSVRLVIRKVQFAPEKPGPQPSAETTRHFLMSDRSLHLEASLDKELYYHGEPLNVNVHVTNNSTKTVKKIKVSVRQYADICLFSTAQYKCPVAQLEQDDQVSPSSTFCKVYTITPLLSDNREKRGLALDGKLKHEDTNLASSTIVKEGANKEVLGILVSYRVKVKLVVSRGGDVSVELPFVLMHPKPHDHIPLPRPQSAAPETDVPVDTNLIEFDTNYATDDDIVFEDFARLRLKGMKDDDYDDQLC

human GPR119 [2] = target: T2, human GPR119 (Homo sapiens, UniProt Q8TDV5); experiment: cAMP functional assay (HTRF, hGPR119 HEK-CRE beta-lactamase cells); assay type: cell-based; settings: one value per run; for EC50: hGPR119 HEK-CRE beta-lactamase cells, HTRF cAMP, 30 min incubation with IBMX; for Intrinsic Activity* (cAMP) / Emax: percent of maximal activity relative to standard GPR119 agonist (WO2005121121) at 10 μM; for Emax: read-out: Intrinsic Activity* (cAMP)
T2 construct: host or cells: HEK293-CRE beta-lactamase cells
T2 sequence (Q8TDV5 1-335): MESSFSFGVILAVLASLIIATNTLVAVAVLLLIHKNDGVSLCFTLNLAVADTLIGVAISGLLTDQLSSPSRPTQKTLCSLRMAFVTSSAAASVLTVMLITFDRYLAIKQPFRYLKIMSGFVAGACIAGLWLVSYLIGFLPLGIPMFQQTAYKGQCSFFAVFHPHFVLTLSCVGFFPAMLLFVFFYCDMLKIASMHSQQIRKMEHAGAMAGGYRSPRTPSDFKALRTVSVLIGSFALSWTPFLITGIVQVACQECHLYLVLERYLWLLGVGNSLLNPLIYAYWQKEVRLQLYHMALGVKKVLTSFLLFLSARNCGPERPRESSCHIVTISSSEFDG
Protocol: GPR119 agonist activity was also determined with a cell-based assay utilizing an
HTRF (Homogeneous Time-Resolved Fluorescence) cAMP detection kit (cAMP dynamic 2 Assay Kit; Cis Bio cat # 62AM4PEC) that measures cAMP levels in the cell. The method is a competitive immunoassay between native cAMP produced by the cells and the cAMP labeled with the dye d2. The tracer binding is visualized by a Mab anti-cAMP labeled with Cryptate. The specific signal (Le. energy transfer) is inversely proportional to the concentration of cAMP in either standard or sample.
Specifically, hGPR119 HEK-CRE beta-lactamase cells (Invitrogen 2.5×10^7/mL; the same cell line used in the beta-lactamase assay described above) are removed from cryopreservation and diluted in growth medium (Dulbecco's modified Eagle medium high glucose (DMEM; Gibco Cat # 11995-065), 1% charcoal dextran treated fetal bovine serum (CD serum; HyClone Cat # SH30068.03), lx MEM Nonessential amino acids (Gibco Cat # 15630-080) and 25 mM HEPES pH 7.0 (Gibco Cat # 15630-080)). The cell concentration was adjusted to 1.5×10^5 cells/mL and 30 mLs of this suspension was added to a T-175 flask and incubated at 37 degrees Celsius in a humidified environment in 5% carbon dioxide. After 16 hours (overnight), the cells were removed from the T-175 flask (by rapping the side of the flask), centrifuged at 800×g and then re-suspended in assay medium (1×HBSS+CaCl2+MgCl2 (Gibco Cat # 14025-092) and 25 mM HEPES pH 7.0 (Gibco Cat # 15630-080)). The cell concentration was adjusted to 6.25×10^5 cells/mL with assay medium and 8 μl of this cell suspension (5000 cells) was added to each well of a white Greiner 384-well, low-volume assay plate (VWR cat # 82051-458).
Varying concentrations of each compound to be tested were diluted in assay buffer containing 3-isobutyl-1-methylxanthin (1BMX; Sigma cat #15879) and added to the assay plate weds in a volume of 2 microL (final BMX concentration was 400 microM and final DMSO concentration was 0.58%). Following 30 minutes incubation at room temperature, 5 microL of labeled d2 cAMP and 5 microL of anti-cAMP antibody (both diluted 1:20 in cell lysis buffer; as described in the manufacturers assay protocol) were added to each well of the assay plate. The plates were then incubated at room temperature and after 60 minutes, changes in the HTRF signal were read with an Envision 2104 multilabel plate reader using excitation of 330 nm and emissions of 615 and 665 nm. Raw data were converted to nM cAMP by interpolation from a cAMP standard curve (as described in the manufacturer's assay protocol) and EC50 determinations were made from an agonist-response curves analyzed with a curve fitting program using a 4-paramter logistic dose response equation.

[3] = U2OS hGPR119 beta-arrestin cells, 90 min incubation, one value per run
[4] = percent of maximal activity relative to standard GPR119 agonist (WO2005121121) at 10 microM, one value per run

Row | SMILES | EC50 (human GPR119 [1]; [3]) | Intrinsic Activity* (B-arrestin) (human GPR119 [1]; [4]) | EC50 (human GPR119 [2]) | Intrinsic Activity* (cAMP) (human GPR119 [2]) | Emax (human GPR119 [2]) [%] | Emax (human GPR119 [1]; marked **: curve extrapolated to 100%, relative to standard GPR119 agonist at 10 microM) [%] | EC50 (human GPR119 [1]; curve was extrapolated to 100% to calculate the EC50 (**)) [nM] | Emax (human GPR119 [1]; [4]) [%]
1 | Cc1c(O[C@@H]2CCN(C(=O)OC3(C)CC3)C[C@@H]2F)ncnc1N1CCn2nccc21 (single isomer, unassigned) [Example 5] | 56 nM and 49 nM | 83% and 55% | 38 nM and 36 nM and 34 nM and 49 nM and 47 nM | 68% and 81% and 61% | 76 |  |  | 
2 | Cc1c(OC2CCN(C(=O)OC3(C)CC3)CC2)ncnc1N1CCn2nccc21 [Example 2, 1-Methylcyclopropyl 4-{[6-(2,3-dihydro-1H-imidazo[1,2-b]pyrazol-1-yl)-5-methylpyrimidin-4-yl]oxy}piperidine-1-carboxylate] |  |  | 117 nM and 255 nM |  | 71 | 100 | 313 | 
3 | Cc1c(O[C@H]2CCN(C(=O)OC(C)C)C[C@H]2F)ncnc1N1CCn2nccc21 (racemic) [Example 4, Isopropyl (3R,4S)-4-{[6-(2,3-dihydro-1H-imidazo[1,2-b]pyrazol-1-yl)-5-methylpyrimidin-4-yl]oxy}-3-fluoropiperidine-1-carboxylate (racemic)] | 53 nM |  | 32 nM and 45 nM | 28% | 31 |  |  | 38
4 | Cc1c(O[C@H]2CCN(C(=O)OC3(C)CC3)C[C@H]2F)ncnc1N1CCn2nccc21 (racemic) [Example 3, 1-Methylcyclopropyl (3R,4S)-4-{[6-(2,3-dihydro-1H-imidazo[1,2-b]pyrazol-1-yl)-5-methylpyrimidin-4-yl]oxy}-3-fluoropiperidine-1-carboxylate (racemic)] | 74 nM and 92 nM | 68% | 66 nM and 68 nM | 61% | 80 |  |  | 83
5 | Cc1c(OC2CCN(C(=O)OC(C)C)CC2)ncnc1N1CCn2nccc21 [Example 1, Isopropyl 4-{[6-(2,3-dihydro-1H-imidazo[1,2-b]pyrazol-1-yl)-5-methylpyrimidin-4-yl]oxy}piperidine-1-carboxylate] |  |  |  | 27% | 28 |  |  | 
6 | Cc1c(O[C@H]2CCN(C(=O)OC3(C)CC3)C[C@H]2F)ncnc1N1CCn2nccc21 (single isomer, unassigned) [Example 6] | 47 nM and 121 nM | 87% and 65% | 40 nM and 140 nM and 48 nM and 88 nM and 82 nM | 82% and 89% and 76% and 83% | 86 |  |  | 
